Data as given in US6432937B1, “Treatment for joint inflammation” (priority 1996, dated 2002).

Key:
Assay type in all cases: in vivo, human
[1] = tested on: rheumatoid arthritis; assay: Example 3: patient with rheumatoid arthritis treated with oral budesonide; conditions: person, 9 mg once a day, after 4 months
Experimental: The invention is illustrated by the following examples where budesonide is administered orally using the Entocort™ preparation as described in EP-A-502092. […] They were diagnosed as having rheumatoid arthritis. They were treated with 9 mg of budesonide once a day. The tests for the symptoms were carried out in the same way as in Examples 1 and 2.

[2] = tested on: ankylosing spondylitis; assay: Example 2: patient with ankylosing spondylitis treated with oral budesonide; conditions: person; for Outcome of previous treatment: ankylosing spondylitis for 12 years, treatment before budesonide
Experimental: (§1) The invention is illustrated by the following examples where budesonide is administered orally using the Entocort™ preparation as described in EP-A-502092.
The tests were carried out in the same way as in Example 1 except that the laboratory inflammatory activity was measured using the ESR (erythrocyte sedimentation rate) whose normal value is less than 5 mm/h and the C-reactive protein plasma concentration which is usually less than 10 mg/litre.

[3] = tested on: HLA-B27 associated reactive arthritis; assay: Example 4: patient with HLA-B27 associated reactive arthritis treated with oral budesonide; conditions: person
Experimental: as §1
wherein the Ritchie index is an alternative joint arthritic index.

[4] = tested on: sacroiliitis and peripheral oligoarthritis; assay: Example 1: patient with sacroiliitis and peripheral oligoarthritis treated with oral budesonide; conditions: person; for Outcome of previous treatment: sacroiliitis and peripheral oligoarthritis for over 7 years, treatment before budesonide
Experimental: as §1
They were initially treated with 9 mg of budesonide once a day for the first four weeks and then the dose was reduced to 6 mg per day.
The normal value of morning stiffness is 0 min. The joint arthritic index was measured using the Lansbury index whose normal value is 0. The spinal movement was measured using Shober's Test whose normal value is from 5 to 6 cm. The joint pain at rest and in motion was estimated using a VAS (visual analogue scale) where 0 represents no pain and 10 very severe pain.

[5] = tested on: rheumatoid arthritis; assay: Example 7: patient with rheumatoid arthritis treated with oral budesonide; conditions: person, 9 mg per day, three weeks
Experimental: The invention is illustrated by the following examples where budesonide is administered orally using the Entocort™ preparation as described in EP-A-502092. A person had suffered from joint swelling and joint pains for about 5 months. At admittance they had symmetric swelling of finger joints, both knees and left ankle. They were on treatment with diclofenac. The rheumatoid factor test was positive and the diagnosis was rheumatoid arthritis. Diclofenac treatment was stopped and they were given 9 mg of budesonide per day.

[6] = tested on: HLA-B27 associated sacroiliitis with peripheral arthropathies; assay: Example 5: patient with HLA-B27 associated sacroiliitis with peripheral arthropathies treated with oral budesonide; conditions: for Outcome of previous treatment: sacroiliitis with peripheral arthropathies for 8 years, treatment before budesonide
Experimental: as §1
A patient had suffered from a HLA-B27 associated sacroiliitis with peripheral arthropathies for 8 years. […] At admittance to the hospital they suffered from direct pains of the sacroiliac joints and inflammation of the left knee and left ankle.

[7] = tested on: rheumatoid arthritis; assay: Example 8: patient with rheumatoid arthritis treated with oral budesonide; conditions: 9 mg once a day
Experimental: as §1
A person had for 2 months suffered from rapidly progressive inflammations of the finger joints of both hands (metacarpophalangeal joints, proximal interphalangeal joints) and the wrists. The diagnosis was rheumatoid arthritis.

[8] = tested on: rheumatoid arthritis; assay: Example 6: patient with rheumatoid arthritis treated with oral budesonide; conditions: person, 9 mg per day, follow-up 4 weeks
Experimental: as §1

[9] = 9 mg once a day, oral, one month after start, before treatment 8
[10] = person, oral, second follow-up three weeks after the first, before treatment 7

CCCC1O[C@@H]2C[C@H]3[C@@H]4CCC5=CC(=O)C=C[C@]5(C)[C@H]4[C@@H](O)C[C@]3(C)[C@]2(C(=O)CO)O1 (stereo partly shown) [budesonide]
C-reactive protein ([1]; before treatment 41): 10 mg/L | ESR rate ([1]; before treatment 70): 16 mm/h | Morning stiffness ([1]; before treatment 180): 0 min | Joint arthritic index (Lansbury index) ([1]; before treatment 205): 0 | Spinal movement (Shober's Test) ([2]; 9 mg once a day, oral, one month after start, before treatment 2.5): 3.5 cm | Joint pains at rest (VAS 0-10) [2, 9]: 1 | Joint pains in motion (VAS 0-10) [2, 9]: 1.7 | ESR rate (erythrocyte sedimentation rate) ([2]; 9 mg once a day, oral, one month after start, before treatment 85, normal less than 5): 30 mm/h | Joint arthritic index (Lansbury index) ([2]; 9 mg once a day, oral, one month after start, before treatment 127): 80 | C-reactive protein plasma concentration ([2]; 9 mg once a day, oral, one month after start, before treatment 140, usually less than 10): 25 mg/L | Morning stiffness ([2]; 9 mg once a day, oral, one month after start, before treatment 270): 0 min | Ritchie index ([3]; 9 mg once a day, oral, three weeks, before treatment 9): 4 | Joint arthritic index ([3]; 9 mg once a day, oral, three weeks, before treatment 112): 6 | Morning stiffness ([3]; 9 mg once a day, oral, three weeks, before treatment 120): 60 min | Spinal movement (Shober's Test) ([4]; 9 mg once a day four weeks then 6 mg per day, oral, after 2 months, before treatment 1, normal 5 to 6): 4 cm | Joint pains at rest (VAS 0-10) ([4]; 9 mg once a day four weeks then 6 mg per day, oral, after 2 months, before treatment 5): 1.5/1.5 | Joint pains in motion (VAS 0-10) ([4]; 9 mg once a day four weeks then 6 mg per day, oral, after 2 months, before treatment 9.5): 1.5/1.5 | Morning stiffness ([4]; 9 mg once a day four weeks then 6 mg per day, oral, after 2 months, before treatment 120, normal 0): 20 min | Joint arthritic index (Lansbury index) ([4]; 9 mg once a day four weeks then 6 mg per day, oral, after 2 months, before treatment 127, normal 0): 0 | Joint pains in motion (VAS 0-10) ([5]; before treatment 5): 0/0 | Joint pains at rest (VAS 0-10) ([5]; before treatment 10): 0/0 | Ritchie index ([5]; before treatment 19): 5 | Joint arthritic index ([5]; before treatment 112): 15 | Morning stiffness ([5]; before treatment 210): 15 min | Duration of treatment until they started to improve ([6]; 9 mg per day): 2 weeks | Ritchie index ([6]; person, 9 mg per day, oral, 6 weeks after start, before treatment 3): 0 | Joint pains in motion (VAS 0-10) ([6]; person, 9 mg per day, oral, 6 weeks after start, before treatment 8): 0/0 | Joint pains at rest (VAS 0-10) ([6]; person, 9 mg per day, oral, 6 weeks after start, before treatment 9.5): 0/0 | Joint arthritic index ([6]; person, 9 mg per day, oral, 6 weeks after start, before treatment 127): 0 | Morning stiffness ([6]; person, 9 mg per day, oral, 6 weeks after start, before treatment 180): 0 min | Time until they started to feel better [7]: 14 days | Ritchie index ([7]; person, oral, first follow-up three weeks after start, before treatment 16): 2 | Joint arthritic index ([7]; person, oral, first follow-up three weeks after start, before treatment 90): 0 | Joint pains at rest (VAS 0-10) [7, 10]: 1/1 | Joint pains in motion (VAS 0-10) [7, 10]: 1/1 | Ritchie index ([8]; before treatment 8): 5 | Joint arthritic index ([8]; before treatment 64): 0 | Morning stiffness ([8]; before treatment 120): 60 min

CN(Cc1cnc2nc(N)nc(N)c2n1)c1ccc(C(=O)N[C@@H](CCC(=O)O)C(=O)O)cc1 [methotrexate]
Outcome of previous treatment [2]: without success | Outcome of previous treatment [4]: without success | Outcome of previous treatment ([6]; person): without any apparent disease-modifying effect

C[C@]12C=CC(=O)C=C1CC[C@@H]1[C@@H]2[C@@H](O)C[C@@]2(C)[C@H]1CC[C@]2(O)C(=O)CO [prednisolone]
Outcome of previous treatment ([3]; reactive arthritis, treatment before budesonide): some relief of the joint pains | Outcome of previous treatment [4]: without success | Outcome of previous treatment ([6]; person): without any apparent disease-modifying effect

O=C(O)c1cc(/N=N/c2ccc(S(=O)(=O)Nc3ccccn3)cc2)ccc1O [sulphasalazine]
Outcome of previous treatment [2]: without success | Outcome of previous treatment ([6]; person): without any apparent disease-modifying effect
